From patent publication US20080009437A1, “Pharmaceutical Compositions and Method for Treating Dry Eye” (priority 2006, published 2008)
Several values for one entry are separate records, joined by “and”; a condition that tells them apart may be missing. Identical values can stand only once. Entries after “also recorded” stand apart in the source; their conditions may differ.

What was measured:
[1] = tested on: rabbit eye (anterior chamber paracentesis); assay: Pupillary diameter measurement, rabbit paracentesis model; format: in vivo; settings: group mean, n=8 eyes
Method: (§1) Each rabbit was placed in a restraint device and tagged with the alphanumeric code. The formulations were instilled (50 μl) into the conjunctival sac of both eyes 180, 120, 90 and 30 min before the first paracentesis; then 15, 30, 90 min after the first paracentesis. To perform the first paracentesis the animals were anaesthetized by intraveneous injection of 5 mg/kg Zoletil® (Virbac; 2.5 mg/kg tiletamine HCl and 2.5 mg/kg zolazepam HCl) and one drop of local anesthetic (Novesina®, Novartis) was administered to the eye. Anterior chamber paracentesis was performed with a 26 G needle attached to a tuberculin syringe; the needle was introduced into the anterior chamber through the cornea, taking care not to damage the tissues. Two hours after the first paracentesis, the animals were sacrificed with 0.4 ml Tanax® (Intervet International B. V.) and the second paracentesis was performed. About 100 μl of aqueous humor were removed at the second paracentesis. Aqueous humor was immediately split in four aliquots and stored at −80° C. until analysis. Then both eyes were enucleated and the iris-ciliary body was carefully excised, placed in polypropylene tubes, and stored at −80° C. until analysis.
The pupillary diameter of both eyes was measured with a Castroviejo caliper 180 min and 5 min before the first paracentesis and 5 min before the second paracentesis.
(§2) Pupillary diameter, PGE2, protein, PMN, and MPO were expressed as mean±SEM. Statistical analysis was performed using one way ANOVA followed by a Newman-Keuls post hoc test. Clinical score was expressed as % of eyes and the statistical analysis was performed using Kruskal-Wallis followed by a Dunn post hoc test. P<0.05 was considered statistically significant in both cases. Prism 4 software (GraphPad Software, Inc.) was used for the analysis and graphs.

[2] = tested on: rabbit paracentesis model; assay: Rabbit paracentesis model, overall anti-inflammatory activity; format: in vivo; settings: 0.1%, 0.5% and 1% topical formulations; preliminary conclusions; listed as BOL-303242-X
Text: Inflammatory processes are multidimensional in origin, and are characterized by complex cellular and molecular events involving numerous components all of which have not been identified. Prostaglandins are among these mediators and play an important role in certain forms of ocular inflammation. Paracentesis of the anterior chamber in the rabbit eye induces inflammatory reaction due to the disruption of the blood-aqueous barrier (“BAB”), which is mediated, at least in part, by prostaglandin E2 [References 1-3 below]. Intraocular or topical administration of PGE2 disrupts the BAB. [Reference 4, below] The treatment schedule adopted in this study was similar to the clinical NSAIDs (Ocufen) treatment schedule used by surgeons for patients before cataract surgery.
Each rabbit was placed in a restraint device and tagged with the alphanumeric code. The formulations were instilled (50 μl) into the conjunctival sac of both eyes 180, 120, 90 and 30 min before the first paracentesis; then 15, 30, 90 min after the first paracentesis. To perform the first paracentesis the animals were anaesthetized by intraveneous injection of 5 mg/kg Zoletil® (Virbac; 2.5 mg/kg tiletamine HCl and 2.5 mg/kg zolazepam HCl) and one drop of local anesthetic (Novesina®, Novartis) was administered to the eye. […]

[3] = tested on: PGE2 in the aqueous humor; assay: Prostaglandin E2 (PGE2) measurement in aqueous humor; format: in vivo, Rabbit; settings: individual eye sample, second paracentesis
[4] = tested on: leukocytes (PMN) in aqueous humor; assay: Leukocytes (PMN) measurement in aqueous humor; format: in vivo, Rabbit; settings: second paracentesis; for PMN (number/μl) in aqueous humor, raw data: individual eye sample; for PMN in aqueous humor, Mean (number/μl): group mean
Method: as §1
For the determination of the number of leukocytes we used a haemocytometer (Improved Neubauer Chamber; Brigth-line, Hausser Scientific) and a Polyvar 2 microscope (Reichert-Jung).
as §2

Row | Structure (SMILES) | Mean (mm) Δ(T3-T1) pupillary diameter ([1]; 0.1% topical formulation) | Mean (mm) Δ(T3-T1) pupillary diameter ([1]; 0.5% topical formulation) | Mean (mm) Δ(T3-T1) pupillary diameter ([1]; 1% topical formulation) | Anti-inflammatory activity in rabbit paracentesis model (conclusion) [2] | PGE2 (ng/ml) in aqueous humor, raw data ([3]; 0.1% topical formulation) | PGE2 (ng/ml) in aqueous humor, raw data ([3]; 0.5% topical formulation) | PGE2 (ng/ml) in aqueous humor, raw data ([3]; 1% topical formulation) | PMN (number/μl) in aqueous humor, raw data ([4]; 0.1% topical formulation) | PMN (number/μl) in aqueous humor, raw data ([4]; 0.5% topical formulation) | PMN (number/μl) in aqueous humor, raw data ([4]; 1% topical formulation) | PMN in aqueous humor, Mean (number/μl) ([4]; 0.1% topical formulation) | Mean (mm) Δ(T3-T1) pupillary diameter ([1]; 0.03% topical formulation) | PGE2 (ng/ml) in aqueous humor, raw data ([3]; 0.03% topical formulation) | PMN in aqueous humor, Mean (number/μl) ([4]; 0.03% topical formulation) | PMN (number/μl) in aqueous humor, raw data ([4]; 0.03% topical formulation)
1 | Cc1ccc2c(NCC(O)(CC(C)(C)c3cc(F)cc4c3OCC4)C(F)(F)F)cccc2n1 (stereo not drawn) [BOL] | −1.1 mm | −1.0 mm | −0.9 mm | active in this model; also recorded: as effective an anti-inflammatory drug as some of the commonly accepted prior-art steroids or NSAID | 0.70 ng/mL | 0.53 ng/mL and 0.75 ng/mL and 0.80 ng/mL | 0.50 ng/mL | 20 number/μl (4×) and 40 number/μl and 50 number/μl | 40 number/μl (2×) and 20 number/μl (3×) and 10 number/μl (3×) | 30 number/μl (3×) and 20 number/μl (3×) and 40 number/μl (2×) | – | – | – | – | –
2 | C[C@@H]1C[C@H]2[C@@H]3CCC4=CC(=O)C=C[C@]4(C)[C@@]3(F)[C@@H](O)C[C@]2(C)[C@@]1(O)C(=O)CO [Dex, dexamethasone] | −0.8 mm | – | – | – | 2.10 ng/mL and 1.30 ng/mL | – | – | 20 number/μl (3×) and 50 number/μl and 40 number/μl and 30 number/μl | – | – | 30.000 number/μl | – | – | – | –
3 | CC(C(=O)O)c1ccc(-c2ccccc2)c(F)c1 (stereo not drawn) [F, flurbiprofen] | – | – | – | – | – | – | – | – | – | – | – | −0.9 mm | 0.75 ng/mL and 0.85 ng/mL and 0.93 ng/mL and 0.61 ng/mL | 30.000 number/μl | 50 number/μl and 40 number/μl (2×) and 20 number/μl (2×) and 10 number/μl and 30 number/μl
4 | CCOC(=O)O[C@]1(C(=O)OCCl)CC[C@H]2[C@@H]3CCC4=CC(=O)C=C[C@]4(C)[C@H]3[C@@H](O)C[C@@]21C [LE, loteprednol etabonate] | – | −0.9 mm | – | – | – | ^2N/D^ and 0.23 ng/ml and 0.68 ng/ml and 1.10 ng/ml | – | – | 40 number/μl (2×) and 20 number/μl (3×) and 30 number/μl | – | – | – | – | – | –
